What was measured:
TBI mice [1] = assay: Novel object recognition (NOR) test in TBI mice; type: in vivo, mouse; conditions: 21 days post-injury, 50 mg/kg/day oral gavage
Protocol: This test evaluates the animal's ability to recognize the novel object in the environment and monitor short-term memory. Initially, the mice were placed in a square novel box (20 in. long×8 in. high) surrounded with an infrared sensor. Two plastic toys (2.5-3 in. size) that varied in color, shape, and texture were placed in specific locations in the environment 18in. away from each other. The mice were able to freely explore the environment and objects for 15 mins and were then placed back into their individual home cages. After 30 min intervals, the mice were placed back into the environment, with the 2 objects in the same locations, but now one of the familiar objects was replaced with a third novel object. The mice were again allowed to freely explore both objects for 15 min. The familiar and novel objects were thoroughly cleaned with a mild detergent after each testing session.

TBI mice [2] = assay: Synapse maturation markers (PSD-95, NR2A, GluR1) in brain of TBI mice; type: in vivo, mouse; conditions: 21 days post-injury, 50 mg/kg/day oral gavage
Protocol: FIGS. 1lA-11H. Restoration of PSD-95, NR2A and GluR1 in the hippocampus of TBI mice by oral administration of GTB. […] Twenty-one days after CCI injury, brain sections were double-labeled for NeuN and PSD-95 (FIG. 11A, control; FIG. 111B, CCI; FIG. 11C, CCI+GTB; FIG. 11D, CCI+Vehicle). Results represent analysis of one section of each of six mice per group. […] FIG. 11E. Actin was run as a loading control. […] Data are expressed as mean+SD. Statistical analyses were performed with one way ANOVA.

[3] = system: experimental allergic encephalomyelitis (EAE) in mice; conditions: oral, 50 mg/kg body wt/d; cited from earlier work
[4] = system: mice with traumatic brain injury (TBI); assay: Remyelination in corpus callosum of mice with TBI (PLP/A2B5 double-labeling); type: in vivo, mouse; conditions: 50 mg/kg body weight/day oral gavage
Protocol: FIG. 4 are images of the corpus collosum in mice showing the levels of proteolipid protein (PLP) and A2B5, a marker of oligodendroglial progenitor cells (OPC), in the experimental conditions after 21 days. Oral administration of sodium benzoate (NaB), but not sodium formate (NaFO), stimulates remyelination in mice with traumatic brain injury (TBI). Mice (n=6 per group) were induced moderate TBI by controlled cortical impact (CCI). Starting from 2 hours after TBI, mice were treated with NaB and NaFO (50 mg/kg body weight/day; mixed with water) orally via gavage. After 21 d of treatment, brain sections were double-labeled for PLP and A2B5.
Proteolipid protein (PLP) is a marker of oligodendrocytes and A2B5 is a marker of oligodendroglial progenitor cells (OPC). After 21 days of treatment, brain sections were double-labeled with antibodies against PLP and A2B5.

[5] = system: oligodendroglial progenitor cells (OPCs); assay: Maturation of oligodendroglial progenitor cells (OPCs) into oligodendrocytes; type: cell-based, mouse
Protocol: FIGS. 15A-15L: Effect of sodium benzoate (NaB) on the maturation of oligodendroglial progenitor cells (OPCs) into oligodendrocytes. OPCs were isolated from P1˜P2 neonatal mouse pups, cultured in OPC media for 4 days in vitro (DIV) followed by treatment with 100 μM NaB and sodium formate (NaFO) in the absence of FGF and PDGF.
FIG. 15A) After 18 h of 100 μM NaB treatment in serum-free condition, cells were fixed and then dual immuno-stained with MBP (red) and OPC marker NG2 (green). Nuclei were stained with DAPI (blue). FIG. 15B) Similarly, OPCs were stained with PLP (red) and A2B5 (green) under similar treatment condition. Quantification of MBP+(FIG. 15C), NG2+(FIG. 15D), PLP+(FIG. 15E), and A2B5+(FIG. 15F) cells as a percentage of total cells (DAPI+). Average 5 fields per slide, total 3 slides. Results are mean+SEM. ***p<0.001. FIG. 15G) For protein expression, cells were treated with different doses of NaB for 18 h under serum free condition and then immunoblotted with PLP and MOG. FIG. 15H) Densitometric analyses of the bands relative to beta actin were done for PLP and MOG. ^ap<0.001 vs. control PLP; ^bp<0.005 vs. control MOG. FIG. 151) Cells were treated with NaB (100 μM) and NaFO (100 μM) for 4 h under serum-free condition followed by monitoring the mRNA expression of myelin-specific genes by real-time PCR (ap<0.01 vs. control PLP; ^bp<0.01 vs. control MOG; cp<0.01 vs. control MBP; dp<0.01 vs. control CNPase). OPCs were cultured on the top of randomly-oriented polycaprolactone nanofibers (Nanofiber Solutions; Cat #Z694576) for 7 days. After that, these cells were treated with 100 μM NaB (FIG. 15J) and NaFO (K) for additional 2 days followed by immunofluorescence analysis for MBP (red) (FIG. 15J, control; FIG. 15K, NaB; FIG. 15L, NaFO). […] Representative 3D constructed images of OPCs adhered to nanofibers were also shown at the right side.

[6] = different doses of NaB, 18 h, serum free

Structure (SMILES) | time spent with novel object (exploration time) (TBI mice [1]) | level of PSD-95 (TBI mice [2]; brain (cortex, hippocampus)) | level of GluR1 (TBI mice [2]; hippocampus) | level of NR2A (TBI mice [2]; hippocampus) | adoptive transfer of EAE [3] | level of PLP in corpus callosum ([4]; 21 days of treatment) | number of OPCs (A2B5 positive) in corpus callosum ([4]; 21 days of treatment) | remyelination ([4]; 21 d of treatment) | mRNA expression of myelin-specific genes (MBP, PLP, MOG, CNPase), real-time PCR ([5]; 100 μM, 4 h, serum-free) | differentiation/maturation of OPCs into oligodendrocytes (MBP+, PLP+, NG2+, A2B5+ cells) ([5]; 100 μM, 18 h, serum-free, absence of FGF and PDGF) | level of MOG in OPCs (immunoblot) [5, 6] | level of PLP in OPCs (immunoblot) [5, 6]
O=C(OCC(COC(=O)c1ccccc1)OC(=O)c1ccccc1)c1ccccc1 [GTB, Glyceryl Tribenzoate] | significantly more time | upregulated | increased | increased | inhibits |  |  |  |  |  |  | 
O=C([O-])c1ccccc1.[Na+] [NaB, Sodium benzoate] |  |  |  |  |  | markedly increased | decreased | stimulates | corroborated | stimulated | increased | increased
